Reference: ChEMBL document CHEMBL1126802, “Structure-affinity relationship studies on 5-HT1A receptor ligands. 1. Heterobicyclic phenylpiperazines with N4-alkyl substituents” (J Med Chem, 1993)

What was measured:
[1] = target: T1, 5-hydroxytryptamine receptor 1A (Rattus norvegicus, UniProt P19327); assay: Displacement of radioligand [3H]2-(di-N-propylamino)-8-hydroxytetralin from 5-hydroxytryptamine 1A receptor in rat frontal cortex homogenate; format: tissue-based
T1 sequence (P19327 whole entry): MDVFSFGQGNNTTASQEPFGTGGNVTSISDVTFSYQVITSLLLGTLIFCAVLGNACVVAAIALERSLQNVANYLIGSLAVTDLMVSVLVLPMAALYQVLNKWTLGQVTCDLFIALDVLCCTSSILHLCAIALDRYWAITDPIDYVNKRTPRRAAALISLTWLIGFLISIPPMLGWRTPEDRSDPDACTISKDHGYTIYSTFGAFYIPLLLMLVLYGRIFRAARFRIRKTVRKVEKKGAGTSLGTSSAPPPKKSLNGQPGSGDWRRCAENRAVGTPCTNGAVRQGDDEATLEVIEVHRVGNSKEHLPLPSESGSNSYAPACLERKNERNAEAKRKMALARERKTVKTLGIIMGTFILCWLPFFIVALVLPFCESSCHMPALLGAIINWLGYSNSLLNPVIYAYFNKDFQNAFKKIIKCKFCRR

[2] = Ionization at 20 degree C; format: ADME
[3] = Ionization at 25 degree C; format: ADME
[4] = Ionization at 30 degree C; format: ADME
[5] = Ionization at 37 degree C; format: ADME
[6] = Ionization at 45 degree C; format: ADME
[7] = target: T1, 5-hydroxytryptamine receptor 1A; assay: Displacement of radioligand [3H]2-(di-N-propylamino)-8-hydroxytetralin from 5-hydroxytryptamine 1A receptor in rat frontal cortex homogenate (experiment 1); format: tissue-based
Opioid receptor [8] = target: T2, Opioid receptor (Mus musculus, UniProt P42866+P32300+P33534); assay: Tested for displacement of radioligand [3H]-Naloxone from opiate receptor; format: protein assay
Opioid receptor [9] = target: T2, Opioid receptor; assay: Tested for displacement of radioligand [3H]-Naloxone from opiate receptor; value ranges from 7-10 uM; format: protein assay

Row | Compound | Ki [1] [nM] | IC50 (Opioid receptor [8]) [nM] | also measured
1 | CCCCCCCCCCN1CCN(c2cccc3ccoc23)CC1 | 8 | – | –
2 | CCCCCN1CCN(c2cccc3c2OCCO3)CC1 | 2.2 | – | pKa [2]: 8.41; pKa [3]: 8.27; pKa [4]: 8.21; pKa [5]: 8.06; pKa [6]: 7.91
3 | CCCN1CCN(c2cccc3ccoc23)CC1 | 29 | – | pKa [5]: 7.84
4 | CC(C)N1CCN(c2cccc3ccoc23)CC1 | 56 | – | –
5 | CCCCCN1CCN(c2cccc3ccoc23)CC1 | 0.81 | – | pKa [5]: > 7.7
6 | CCN1CCN(c2cccc3c2OCCO3)CC1 | – | – | pKa [2]: 8.34; pKa [5]: 8
7 | CCCCCCCCN1CCN(c2cccc3ccoc23)CC1 | 1.7 | – | –
8 | CCCCCN1CCN(c2cccc(Cl)c2)CC1 | – | – | Ki [7]: 7.8 nM; pKa [2]: > 7.4; pKa [3]: > 7.4; pKa [4]: > 7.5; pKa [5]: > 7.2; pKa [6]: > 7
9 | CCCCCCN1CCN(c2cccc3c2OCCO3)CC1 | 0.5 | – | –
10 | CCCCCCN1CCN(c2cccc3ccoc23)CC1 | 0.54 | – | –
11 | CCCN1CCN(c2cccc3c2OCCO3)CC1 | 80 | – | pKa [2]: 8.36; pKa [5]: 8.02
12 | c1cc(N2CCN(CC3CCCCC3)CC2)c2occc2c1 | 7.7 | – | –
13 | CN1CCN(c2cccc3c2OCCO3)CC1 | 24 | – | pKa [2]: 8.07; pKa [5]: 7.77
14 | CCCCN1CCN(c2cccc3ccoc23)CC1 | 5.9 | – | pKa [5]: 7.77
15 | c1cc(N2CCN(C3CCCCC3)CC2)c2occc2c1 | 64 | – | –
16 | c1cc2c(c(N3CCN(CCC4CCCCC4)CC3)c1)OCCO2 | 0.25 | – | –
17 | c1cc2c(c(N3CCN(CC4CCCCC4)CC3)c1)OCCO2 | 11 | – | –
18 | CCCCN1CCN(c2cccc3c2OCCO3)CC1 | 12 | – | pKa [2]: 8.41; pKa [5]: 8.06
19 | CCCCCCCCN1CCN(c2cccc3c2OCCO3)CC1 | 0.61 | – | –
20 | CCOC(=O)C1(c2ccccc2)CCN(CC)CC1 | – | 5000 | –
21 | CN1CCN(c2cccc3ccoc23)CC1 | 8.1 | – | pKa [5]: 7.54
22 | CCCCCCCCCN1CCC(C(=O)OCC)(c2ccccc2)CC1 | – | 150 | –
23 | CCCCCCCN1CCC(C(=O)OCC)(c2ccccc2)CC1 | – | 55 | –
24 | CCN1CCN(c2cccc3ccoc23)CC1 | 23 | – | pKa [5]: 7.79

Row | Compound | Ki [1] [nM] | IC50 (Opioid receptor [8]) [nM] | also measured
25 | CCCCN1CCC(C(=O)CC)(c2cccc(O)c2)CC1 | – | 50000 | –
26 | c1cc(N2CCN(CC3CC3)CC2)c2occc2c1 | 20 | – | –
27 | CCCCCCN1CCC(C(=O)CC)(c2cccc(O)c2)CC1 | – | 20000 | –
28 | CCCCCCCCN1CCC(C(=O)OCC)(c2ccccc2)CC1 | – | 30 | –
29 | c1cc(N2CCNCC2)c2occc2c1 | 13 | – | pKa [2]: 8.84; pKa [5]: 8.44
30 | CCCN1CCC(C(=O)OCC)(c2ccccc2)CC1 | – | 4000 | –
31 | CCCCCCCCCCN1CCC(C(=O)CC)(c2cccc(O)c2)CC1 | – | 500000 | –
32 | CCCCN1CCC(C(=O)OCC)(c2ccccc2)CC1 | – | 900 | –
33 | CCCCCCCCN1CCC(C(=O)CC)(c2cccc(O)c2)CC1 | – | 200000 | –
34 | CCCCCCCCCN1CCC(C(=O)CC)(c2cccc(O)c2)CC1 | – | 700000 | –
35 | CCCCCN1CCC(C(=O)OCC)(c2ccccc2)CC1 | – | 400 | –
36 | CCCCCCCN1CCC(C(=O)CC)(c2cccc(O)c2)CC1 | – | 20000 | –
37 | CCCCCCN1CCC(C(=O)OCC)(c2ccccc2)CC1 | – | 200 | –
38 | CCCN1CCC(C(=O)CC)(c2cccc(O)c2)CC1 | – | 200000 | –
39 | CCC(=O)C1(c2cccc(O)c2)CCN(CC)CC1 | – | 400000 | –
40 | CCCCCCCCCCN1CCN(c2cccc3c2OCCO3)CC1 | 1 | – | –
41 | CCCCCN1CCC(C(=O)CC)(c2cccc(O)c2)CC1 | – | 8000 | –
42 | CC(C)CN1CCN(c2cccc3ccoc23)CC1 | 64 | – | –
43 | COc1ccccc1N1CCNCC1 | 170 | – | –
44 | Clc1cccc(N2CCNCC2)c1 [CHLOROPHENYLPIPERAZINE] | – | – | Ki [7]: 200 nM; pKa [2]: 8.72; pKa [3]: 8.6; pKa [4]: 8.46; pKa [5]: 8.36; pKa [6]: 8.12
45 | c1cc2c(c(N3CCNCC3)c1)OCCO2 [ELTOPRAZINE] | – | – | pKa [2]: 9.18; pKa [3]: 8.99; pKa [4]: 8.88; pKa [5]: 8.74; pKa [6]: 8.55
46 | O=C1c2ccccc2S(=O)(=O)N1CCCCN1CCN(c2ncccn2)CC1 [IPSAPIRONE] | 5.5 | – | –
47 | CCC(=O)C1(c2cccc(O)c2)CCN(C)CC1 [KETOBEMIDONE] | – | – | IC50 (Opioid receptor [9]): 7000 nM
